pKi: −log10 of the molar value.
Target: Carbonic anhydrase 7 (Homo sapiens, UniProt P43166)
Assay: Inhibition of human recombinant CAH7

Sequence of Carbonic anhydrase 7 (P43166 whole entry): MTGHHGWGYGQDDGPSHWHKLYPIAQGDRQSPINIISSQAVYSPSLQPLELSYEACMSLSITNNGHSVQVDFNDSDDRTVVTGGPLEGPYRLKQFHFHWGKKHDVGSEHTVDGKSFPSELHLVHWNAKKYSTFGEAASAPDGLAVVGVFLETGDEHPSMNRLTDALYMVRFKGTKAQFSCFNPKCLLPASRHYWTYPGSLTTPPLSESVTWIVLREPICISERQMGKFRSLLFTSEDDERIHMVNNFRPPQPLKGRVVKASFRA

pKi: 8.19
Structure (SMILES): COc1cc2c(cc1OC)C(C)N(S(N)(=O)=O)CC2 (stereo unspecified)

From ChEMBL document CHEMBL1765058, “Structural basis for the interaction between carbonic anhydrase and 1,2,3,4-tetrahydroisoquinolin-2-ylsulfonamides” (J Med Chem, 2011)
